This is an account of results in patent US20160101177A1, “pH AND LIGHT ACTIVATED ANTI-CANCER DRUGS” (The Board of Trustees of the University of Alabama, priority 2014, published 2016).

“And” between values parts separate entries of the source, which are not always exact repeats. Identical values can stand only once.

Series [1] is described as follows: Kinetics of light-induced ligand photo-dissociation monitored by UV/visible spectroscopy. It counts as physicochemical. Particulars: for rate of photodecomposition / ligand loss: pH 7.5 in water. From the text:
The rate of ligand loss from [Ru(bpy)2(66′bpy(OH)2)]^2+ to give the active anti-cancer agent ([Ru(bpy)2(solvent)2]^2+) can depend greatly on pH and the solvent composition. At pH 5 in aqueous solution, [Ru(bpy)2(66′bpy(OH)2)]^2+ undergoes blue light induced ligand loss which was monitored by UV/visible spectroscopy over one hour (graph (a) in FIG. 8). At this pH, which is below pKa1 and pKa2, the dihydroxybipyridine ligand should be in its native (protonated) state and should correspond to weaker Ru—N bonds (cf. deprotonated ligand), due to a less electron rich ligand as corroborated by crystallographic and computational results described herein. […] This A→B process is consistent with the clean isosbestic point observed, and furthermore, a first or second order process can be ruled out due to non-linear (curved) plots for these rate laws (see supplementary materials).
At this pH, which is above pKa1 and pKa2, the 6,6′-dihydroxybipyridine ligand should be fully deprotonated, which corresponds to stronger Ru—N bonds. Slight fluctuations in the absorbance values can be attributed to noise, and at this pH the rate of photodecomposition appears to be zero. Thus, the deprotonated, more strongly donating ligand appears to block photodecomposition. Thus, this establishes the framework for how a metal-based prodrug can be selectively activated in cancer cells, which have a lower pH as compared to normal cells.
Studies in acetonitrile were done to monitor the process that gave rise to ([Ru(bpy)2(CH3CN)2]^2+) and investigate the influence of solvent on the rates. […] In contrast, upon irradiation with blue light (450 nm), [Ru(bpy)2(66′bpy(OH)2)]^2+ in acetonitrile undergoes decomposition to give [Ru(bpy)2(CH3CN)2)]^2+ and the free ligand, 66′bpy(OH)2 (λmax=343 nm, 421 nm). These products have been prepared independently and their spectra are consistent with those shown for the final result of photodecomposition (graph (c) in FIG. 8). The observed zero order rate constant, kobs=2.6×10^−7 M/s, was determined by fitting an A→B process at 457 nm. The large changes in light absorption show a clean isosbestic point at λ=422 nm and is consistent with an A→B process. Furthermore, the light induced loss of a ligand is consistent with a zero order process that is independent of concentration. The observed rate constant, kobs=2.6(1)×10^−7 M/s, reflects that photodecomposition is nearly complete (87%) in 5 minutes, and it is entirely complete within 20 minutes, graph (c) in FIG. 8. Thus, the reaction proceeds 15 times more quickly in acetonitrile vs. pH 5 aqueous media. This could be attributed to decreased back reaction in acetonitrile, or enhanced stability of the product ligand in acetonitrile since it is better solvated. The product complex is analogous to the likely product of photodecomposition in vivo, namely [Ru(bpy)2(H2O)2)]^2+.

The subject of series [2] is human cervical carcinoma (HeLa) cells. The experiment in a line: MTT cell viability assay in HeLa cells with or without 450 nm irradiation. It counts as cell-based. Particulars: for HeLa cell viability, no irradiation: absence of light; for IC50: read-out: IC50 (error). Here is the method: For cell culture, human cervical carcinoma (HeLa) cells were obtained from the ATCC. The cells were cultured at 37° C. in a 5% CO2, humidified atmosphere in Dulbecco's Modified Eagle Medium (DMEM) supplemented with 10% fetal bovine serum, 100 U/mL penicillin, and 100 μg/ml streptomycin (Invitrogen). Assays were accomplished by seeding cells at a density of 5,000 cells/well in a 96-well plate and incubated at 37° C. overnight. Media was exchanged and then cells were treated with either 100 μM [Ru(bpy)2(66′bpy(OH)2)]^2+, [Ru(bpy)2(44′bpy(OH)2)]^2+, or [Ru(bpy)3]^2+ for 48 h. The medium containing compounds was discarded, cells were washed, and fresh Hank's Balanced Salt Solution was added. In the dark, cells were irradiated using a 450 nm light emitting diode (LED) flashlight positioned 4 cm from the plate for 1 h. The salt solution was exchanged with media and cells were allowed to grow for 24 h. Media containing 20 μL of 3-(4,5-dimethylthiazol-2-yl)-[…] bromide (MTT) (5 mg/mL) was added to each well and incubated for an additional 3 h. The medium was removed. After adding 200 μL of DMSO to each well, the optical densities at 570 nm were determined The p-values were calculated from triplicate data sets using KaleidaGraph software.
Upon irradiation the [Ru(bpy)2(66′bpy(OH)2)]^2+ prodrug can be converted into a cytotoxic agent while in a cell. For example, HeLa cells were plated, incubated with [Ru(bpy)2(66′bpy(OH)2)]^2+, irradiated, and an MTT cell viability assay was used to assess cellular viability. […] The average viability dropped to 93+/−6%. The change is not statistically significant with p greater than 0.05. Similar results were obtained when cells were not treated with the agent and only irradiated for one hour. The viability dropped to 88+/−9%. […] When [Ru(bpy)2(66′bpy(OH)2)]^2+ was incubated with HeLa cells and irradiated the viability dropped to 47+/−12%. This is a statistically significant drop with p less than 0.004 and 0.02 for no ruthenium-complex and no irradiation respectively. Further experiments changing the concentration of [Ru(bpy)2(66′bpy(OH)2)]^2+ in HeLa cells under irradiation can allow for measurement of an inhibitory concentration (IC50). The IC50 for anti-cancer activity is given in Table 1, which are consistent with the data in FIG. 3.
On the technique in general: Formazan colour is commonly taken as a measure of viable cells.

Series [3] in a line: pH titration by UV/visible absorbance in aqueous buffers (pKa). It counts as physicochemical. Particulars: aqueous buffers pH 1 to 13, 25° C. On the procedure: ^1H-NMR spectra were collected on a Varian 300 MHz Fourier Transform spectrometer in deuterated acetonitrile (CD3CN) Infrared spectra were obtained on a Perkin Elmer Spectrum One FT-IR with Universal ATR sampling accessory. UV-visible absorption spectra were collected on a Scinco S-3100 diode-array spectrophotometer at a resolution of 1 nm. Luminescence data was collected on a Horiba Jobin Yvon Fluoromax 3. pH measurements were performed using a VWR SympHony pH meter, utilizing a three point calibration at pH=4.0, 7.0, and 10.0.
UV/visible absorbance data was collected for [Ru(bpy)2(66′bpy(OH)2)]^2+ in aqueous buffers ranging from pH=1 to pH=13, FIG. 6. The deprotonated form of [Ru(bpy)2(66′bpy(OH)2)]^2+ is red shifted compared to the protonated form of the complex. The pH titration data can show two distinct events that yielded a pKa1=5.26 and pKa2=7.27.

[4] abbreviates: 100 μM complex for 48 h, untreated non-irradiated cells = 100%.
Setting [5] is: HeLa cells under irradiation (450 nm, 1 h), MTT.

Consider `F[P-](F)(F)(F)(F)F.F[P-](F)(F)(F)(F)F.Oc1ccnc(-c2cc(O)ccn2)c1.[Ru+2].c1ccc(-c2ccccn2)nc1.c1ccc(-c2ccccn2)nc1` [[Ru(bpy)2(44′bpy(OH)2)]^2+, [Ru(bpy)2(44′bpy(OH)2)][PF6]2], for which the photo-dissociation of ligand result in series [1] (blue light) is given as “no photo-dissociation”. In addition, in series [2] (setting [4]), the “HeLa cell viability, no irradiation” value is 91+/−4%. For the same compound, in series [2] (setting [5]), the “IC50 (error)” value is reported as “no significant effects” and the IC50 (as a rule, the concentration at which inhibition is half-maximal) was more than 100 µM.

Consider `F[P-](F)(F)(F)(F)F.F[P-](F)(F)(F)(F)F.O.Oc1cccc(-c2cccc(O)n2)n1.[Ru+2].c1ccc(-c2ccccn2)nc1.c1ccc(-c2ccccn2)nc1` [[Ru(bpy)2(66′bpy(OH)2)]^2+, [Ru(bpy)2(66′bpy(OH)2)][PF6]2.H2O], for which, in series [3], the pKa1 turned out to be 5.26 and the pKa2 stood at 7.27. Besides, in series [1] (450 nm blue light), the “rate in acetonitrile vs. pH 5 aqueous media” value came out at 15 times and the “rate of photodecomposition / ligand loss” value is reported as “no measurable photodecomposition”. In addition, in series [1] (acetonitrile, 450 nm blue light), the “time to entirely complete photodecomposition” value was not above 20 min. Besides, the extent of photodecomposition in series [1] (acetonitrile, 450 nm blue light, 5 minutes) came to 87%. Also, in series [1] (acetonitrile, 450 nm blue light, followed at 457 nm), the “kobs, zero order rate constant of photodecomposition” value is recorded as 2.6(1)×10^−7 M/s. Besides, the “kobs, zero order rate constant of blue light induced ligand loss” value in series [1] (pH 5 aqueous solution, 450 nm blue light, initial rate 0-300 s, followed at 461 nm) was 1.7(2)×10^−8 M/s. Moreover, in series [1] (pH 5 in water, blue light), the ligand dissociation entry was “readily dissociates”. Further, the “rate of photodecomposition / ligand loss” value in series [1] (450 nm blue light, listed as [Ru(bpy)2(66′bpy(OH)2)2)]^2+) is “zero”. Further, the “stability in acetonitrile solution” value in series [1] (protected from light or exposed to 720 nm red light) was “stable”. Further, the “HeLa cell viability, with irradiation” value in series [2] (100 μM complex for 48 h, then 450 nm irradiation for 1 h, untreated non-irradiated cells = 100%) was 47+/−12% and 47%. Besides, the 50% inhibitory concentration (IC50) in series [2] (setting [5]) amounted to 88 µM.

Consider `[Cl][Ru][Cl].c1ccc(-c2ccccn2)nc1.c1ccc(-c2ccccn2)nc1.c1ccc(-c2ccccn2)nc1` [[Ru(bpy)3]^2+, [Ru(bpy)3][Cl]2], for which, in series [2] (setting [4]), the “HeLa cell viability, no irradiation” value is 91+/−4%. Further, the IC50 in series [2] (setting [5]) was found to be 152 µM.
